Article PMC8968063, “Key features of inhibitor binding to the human mitochondrial pyruvate carrier hetero-dimer” (Molecular Metabolism, 2022)
Like-named read-outs stand apart in the source and are kept apart here.

How the values were obtained:
[1] = target: T1, human MPC1L/MPC2 complex (Homo sapiens, UniProt O95563+P0DKB6); assay: CPM thermostability shift assay, purified MPC1L/MPC2; assay type: binding; conditions: for ΔTm at 100 µM: read-out: ∆Tm, CPM assay (thermal shift compared to no-ligand control); for Tm, CPM assay: unliganded 51.3 ± 0.2, mean ± s.d., 3 biological repeats
T1 construct: eight-histidine tag (C, cleaved yes); TEV protease cleavage site (part stays on MPC2 after digestion) (C, cleaved yes); made in house; host or cells: Saccharomyces cerevisiae SHY15 (mpc triple deletion strain), purified from mitochondria
T1 sequence (P0DKB6 2-136): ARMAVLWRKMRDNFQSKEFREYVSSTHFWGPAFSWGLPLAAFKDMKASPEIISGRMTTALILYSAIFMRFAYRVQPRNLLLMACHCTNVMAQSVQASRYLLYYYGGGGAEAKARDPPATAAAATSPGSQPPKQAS
T1 sequence (O95563 2-127): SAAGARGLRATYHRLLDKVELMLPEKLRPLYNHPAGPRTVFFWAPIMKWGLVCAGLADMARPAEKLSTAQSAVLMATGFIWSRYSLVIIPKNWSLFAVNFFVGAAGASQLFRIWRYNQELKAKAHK
Experimental: The assessment of ligand binding was performed via shifts in protein thermostability upon binding using thermal denaturation on a rotary quantitative PCR (qPCR) instrument (Qiagen Rotor-Gene Q 2plex HRM, Venlo, Netherlands), as previously described. In this method, cysteine residues, buried within the protein structure, become solvent-exposed during denaturation in a temperature ramp and then react with 7-diethylamino-3-(4-maleimidophenyl)-4-methylcoumarin (CPM) to form fluorescent-adducts. Briefly, a CPM working solution was prepared by diluting the CPM stock (5 mg/mL in dimethyl sulfoxide) 50-fold into assay buffer (20 mM Tris–HCl, pH 7.4, 150 mM NaCl, 0.1% (w/v) LMNG, 0.1 mg/mL TOCL) and incubated for 10 min at room temperature. In each analysis, performed in duplicates or triplicates, 3 μg of purified MPC was diluted into 45 μL of assay buffer containing the desired concentration of the inhibitor then incubated for 10 min on ice. Next, 5 μL of the CPM working solution were added. Samples were incubated on ice for an additional 10 min then subjected to a temperature ramp of 5.6 °C/min. The fluorescence increase was monitored with the HRM channel of the instrument (excitation at 440–480 nm, emission at 505–515 nm). Unfolding profiles were analysed with the Rotor-Gene Q software 2.3, and the peaks of their derivatives were used to determine the apparent melting temperature.

[2] = target: T2, recombinant human MPC1L/MPC2 (Homo sapiens, UniProt O95563+P0DKB6); assay: Electrospray mass spectrometry of MPC1L/MPC2 after reaction with inhibitors or sulfhydryl modifiers
T2 construct: MPC1L (2–136); MPC2 (2–137); eight-histidine tag (C, cleaved yes); TEV protease cleavage site (part stays on MPC2 after digestion) (C, cleaved yes); made in house; host or cells: Saccharomyces cerevisiae SHY15 (mpc triple deletion strain), purified from mitochondria
T2 sequence (P0DKB6 2-136 limits assumed): T1 sequence (P0DKB6 2-136)
T2 sequence (O95563 2-127 limits assumed): T1 sequence (O95563 2-127)
Experimental: Different MPC inhibitors (Table1) or sulfhydryl reagents were first incubated with MPC1L/MPC2 in a folded state, then the protein molecular masses were measured by electrospray mass spectrometry. The MPC subunits (10 μg) were resolved by reverse-phase HPLC on a PLRP-S column (1.0 mm i.d. X 75 mm; VARIAN) using a gradient of 2-propanol in a solvent system compatible with the recovery of membrane proteins (Carroll et al., 2009). The eluate (50 μL/min) was introduced into a QTRAP4000 (SCIEX) mass spectrometer operating in positive ion single MS mode. The instrument was scanned from 700 m/z to 2300 m/z after calibration with ions from a mixture of 1.0 μM of myoglobin and 1.5 μM trypsinogen. Molecular masses were obtained by reconstruction of the spectra of multiply charged ions using PeakView (SCIEX).

[3] = system: mammalian MPCs; conditions: cited from earlier work
[4] = target: T3, human MPC1L/MPC2 hetero-dimer (Homo sapiens, UniProt O95563+P0DKB6); assay: Inhibition of [14C]-pyruvate homo-exchange in MPC1L/MPC2 proteoliposomes; assay type: biochemical; conditions: MPC1L/MPC2 proteoliposomes, 50 μM [14C]-pyruvate homo-exchange, mean ± s.d.; read-out: IC50 of pyruvate transport inhibition
T3 construct: eight-histidine tag (C, cleaved yes); TEV protease cleavage site (part stays on MPC2 after digestion) (C, cleaved yes); made in house; host or cells: Saccharomyces cerevisiae SHY15 (mpc triple deletion strain), purified from mitochondria
T3 sequence (P0DKB6 2-136): T1 sequence (P0DKB6 2-136)
T3 sequence (O95563 2-127): T1 sequence (O95563 2-127)
Experimental: Egg L-α-phosphatidylcholine 99% (w/v) (Avanti Polar Lipids, AL, USA) and TOCL were mixed in a 20:1 (w/w) ratio, dried under a stream of nitrogen and washed once with methanol before being dried again. Lipids were hydrated in 20 mM Tris–HCl, pH 8.0, 50 mM NaCl to a concentration of 12 mg/mL. Unlabeled pyruvate was added as a freshly made concentrated stock at a final concentration of 5 mM for internalisation. Lipids were solubilised with 1.2% (v/v) pentaethylene glycol monodecyl ether (Sigma) and freshly purified protein was added at a lipid-to-protein ratio of 250:1 (w/w). Samples were incubated on ice for 5 min, then liposomes were formed by the step-wise removal of pentaethylene glycol monodecyl ether by five additions at 20 min intervals of 60 mg Bio-Beads SM-2 (Bio-Rad, Watford, UK) with gentle mixing at 4 °C. A final addition of 480 mg Bio-Beads was incubated with the samples overnight. Proteoliposomes were first separated from the Bio-Beads by passage through empty spin columns (Bio-Rad, Watford, UK) and subsequently pelleted at 120,000×g for 60 min. The proteoliposomes were resuspended with a thin needle in 150 μL of their supernatant after the rest of the supernatant was removed.
The time course of pyruvate homo-exchange was measured at room temperature. The transport was initiated by diluting proteoliposomes 200-fold into external buffer, 20 mM MES, pH 6.4, 50 mM NaCl, containing 50 μM [^14C]-pyruvate (500,000 dpm, Perkin Elmer, MA, USA). The reaction (0–30 s) was terminated by rapid dilution into 8 volumes of ice-cold internal buffer (20 mM Tris–HCl, pH 8.0, 50 mM NaCl), followed by rapid filtration through cellulose nitrate 0.45 μm filters (Millipore, Gillingham, UK) and washing with an additional 8 volumes of buffer. The filters were dissolved in Ultima Gold scintillation liquid (Perkin Elmer, MA, USA) and the radioactivity was counted with a Perkin Elmer Tri-Carb 2800 RT liquid scintillation counter. […] The data analysis was performed with non-linear regression fittings using GraphPad Prism 7.0d ([Inhibitor] vs response, variable slope). The specific uptake rates were calculated based on the amount of protein used in reconstitutions, as estimated from bicinchoninic acid assay. The biological repeats represent independent proteoliposome preparations using protein from independent purifications.

[5] = target: T1, human MPC1L/MPC2 complex; assay: nano-DSF thermostability shift assay, purified MPC1L/MPC2; assay type: binding; conditions: inhibitor 100 μM
Experimental: Ligand binding was also assessed using dye-free nano differential scanning fluorimetry (nano-DSF) to monitor fluorescence changes due to altered environments of tryptophan and tyrosine residues during unfolding. Protein samples in buffer containing 20 mM Tris–HCl pH 7.4, 150 mM NaCl, 0.1% (w/v) LMNG, 0.1 mg/mL TOCL, in the presence or absence of the indicated concentrations of small molecule inhibitors, were loaded into capillary tubes, and a temperature ramp of 5 °C/min was applied. The intrinsic fluorescence was measured using the NanoTemper Prometheus NT.48 (NanoTemper, München, Germany).

[6] = MPC1L/MPC2 after reaction with compound
[7] = number of covalent adducts from mass increase

Compound	ΔTm at 100 µM ([1]; inhibitor 100 μM)	Tm, CPM assay ([1]; inhibitor 100 μM)	also measured
N#C/C(=C/c1ccc(-c2ccc(Br)cc2)o1)C(=O)O [Compound 3]	8.4 ± 1.3 °C	59.7 ± 1.1 °C	–
O=C1NC(=O)C(=Cc2ccc(-c3ccccc3[N+](=O)[O-])o2)C(=O)N1 [Compound 11]	–	57.7 ± 2.1 °C	ΔTm at 100 µM [1]: 6.4 ± 2.3 °C
CS(=O)(=O)SCCN [MTSEA]	–	–	Mass difference (observed vs calculated), MPC1L (2–136) [2, 6]: +149.3 Da; Mass difference (observed vs calculated), MPC1L (5–136) [2, 6]: +149.2 Da; Covalent modification of MPC protomers (molecular mass change) ([2]; folded MPC1L/MPC2 incubated with compound, ESI-MS): modified covalently; Modifications, MPC1L (2–136) [2, 7]: 2 x MTSEA; Modifications, MPC1L (5–136) [2, 7]: 2 x MTSEA; Modifications, MPC2 (2–137) [2, 7]: 1 x MTSEA
O=C(O)C(F)=Cc1ccccc1 [α-fluorocinnamate]	–	–	Potency relative to α-cyano-cinnamate (times less potent) [3]: 1,000 times
CN(CCOc1ccc(CC2SC(=O)NC2=O)cc1)c1ccccn1 (centres unmarked) [Rosiglitazone, rosiglitazone]	5.3 ± 0.5 °C	56.6 ± 0.3 °C	–
N#C/C(=C/c1ccc(-c2cccc(C(F)(F)F)c2)o1)C(=O)O [Compound 6]	8.5 ± 1.6 °C	59.8 ± 1.4 °C	–
N#C/C(=C/c1ccc(-c2cccc([N+](=O)[O-])c2)o1)C(=O)O [Compound 9]	11.7 ± 2 °C	63.0 ± 1.8 °C	–
C=CCN1C(=O)NC(=O)/C(=C/c2ccc(-c3ccccc3[N+](=O)[O-])o2)C1=O [Compound 13]	7.4 ± 1.9 °C	58.7 ± 1.7 °C	–
O=C1CN(/N=C/c2ccc([N+](=O)[O-])o2)C(=O)N1 [Nitrofurantoin, (E)-1-[(5-nitro-2-furyl)methylideneamino]imidazolidine-2,4-dione]	–	–	IC50 [4]: 3.3 ± 2.6 µM
CCc1ccc(CCOc2ccc(CC3SC(=O)NC3=O)cc2)nc1 (centres unmarked) [Pioglitazone, pioglitazone]	5.1 ± 0.9 °C	56.4 ± 0.7 °C	∆Tm, nano-DSF [5]: 1.1 ± 0.3 °C; Tm, nano-DSF ([5]; unliganded 51.9 ± 0.1, mean ± s.d., 2 biological repeats): 53.0 ± 0.2 °C
N#C/C(=C/c1ccc(-c2ccc(Cl)cc2)o1)C(=O)O [Compound 5]	9 ± 1.6 °C	60.3 ± 1.4 °C	–
